# Measured values published in patent US9302991B2, “Arylamide derivatives as TTX-S blockers” (RaQualia Pharma Inc., priority 2010, dated 2016).
# Target: T1, human Nav1.7 channels (Homo sapiens, UniProt Q15858)
# T1 construct: expressed in transfected cells; host or cells: CHO
# Assay: FRET assay, human Nav1.7 (EFS on FDSS)
# Assay type: cell-based
# Conditions: CHO cells expressing human Nav1.7, read-out: IC50 against Nav1.7
# Experimental: The inhibitory activities of compounds against voltage gated sodium channels are determined by methodology well known in the art.
# The ability of the aryl substituted carboxamide derivatives of the formula (I) to inhibit the NaV1.3, Nav1.7 and Nav1.5 channels is measured by Fluorescence Resonance Energy Transfer (FRET) assay and electrophysiology assay described below.
# This screen is used to determine the effects of compounds on human Nav1.3, human Nav1.7, and human Nav1.5 channels, utilising electrical field stimulation (EFS) system in 96-well plate format on FDSS (Hamamatsu Photonics) platform. The change of membrane potential is monitored with FRET dye pair, oxonol (DiSBAC2(3)) and coumarin (CC2-DMPE).
# CHO cells expressing human Nav1.7 channels are grown in T225 flasks, in a 5% CO2 humidified incubator to about 80% confluence. Media composition consists of HAM/F12 with Glutamax 1.10% FCS, 100 units/mL Penicillin and 100 microgram/mL Hygromycin.
# Protocol: • Seed each cell lines (1×10^5 cells/well) into poly-D-lysine coated 96-well plates prior to experimentation. • Incubate at 37° C. in 5% CO2 for 24 hours. • Wash each well with assay buffer (140 mM NaCl, 4.5 mM KCl, 10 mM D-Glucose, 2 mM CaCl2, 1 mM MgCl2, 10 mM HEPES, pH 7.4 adjusted with NaOH) twice. • Add 1st loading solution containing 10 microM CC2-DMPE and 0.06% Pluronic F-127 in assay buffer. • Incubate the plate at room temperature in dark for 1 hour. • Remove 1st loading solution and added 2nd loading solution containing 15 microM DiSBAC2(3), 0.555 mM VABSC-1 and 0.004% Pluronic F-127 in assay buffer. • Place the plate under the dark at room temperature for 25 minutes. • Add compound solutions into the assay plate. • Set the assay plate in FDSS and placed an EFS device on the plate. • Measure EFS-induced fluorescent response by FDSS.
# The data are analyzed and reported as normalized ratios of intensities measured at […]. The process of calculating these ratios is performed as follows:
# This analysis is performed using a computerized specific program designed for FDSS generated data. Fluorescence ratio values are plotted using XLfit to determine an IC50 value for each compound.
# T1 sequence (Q15858 whole entry): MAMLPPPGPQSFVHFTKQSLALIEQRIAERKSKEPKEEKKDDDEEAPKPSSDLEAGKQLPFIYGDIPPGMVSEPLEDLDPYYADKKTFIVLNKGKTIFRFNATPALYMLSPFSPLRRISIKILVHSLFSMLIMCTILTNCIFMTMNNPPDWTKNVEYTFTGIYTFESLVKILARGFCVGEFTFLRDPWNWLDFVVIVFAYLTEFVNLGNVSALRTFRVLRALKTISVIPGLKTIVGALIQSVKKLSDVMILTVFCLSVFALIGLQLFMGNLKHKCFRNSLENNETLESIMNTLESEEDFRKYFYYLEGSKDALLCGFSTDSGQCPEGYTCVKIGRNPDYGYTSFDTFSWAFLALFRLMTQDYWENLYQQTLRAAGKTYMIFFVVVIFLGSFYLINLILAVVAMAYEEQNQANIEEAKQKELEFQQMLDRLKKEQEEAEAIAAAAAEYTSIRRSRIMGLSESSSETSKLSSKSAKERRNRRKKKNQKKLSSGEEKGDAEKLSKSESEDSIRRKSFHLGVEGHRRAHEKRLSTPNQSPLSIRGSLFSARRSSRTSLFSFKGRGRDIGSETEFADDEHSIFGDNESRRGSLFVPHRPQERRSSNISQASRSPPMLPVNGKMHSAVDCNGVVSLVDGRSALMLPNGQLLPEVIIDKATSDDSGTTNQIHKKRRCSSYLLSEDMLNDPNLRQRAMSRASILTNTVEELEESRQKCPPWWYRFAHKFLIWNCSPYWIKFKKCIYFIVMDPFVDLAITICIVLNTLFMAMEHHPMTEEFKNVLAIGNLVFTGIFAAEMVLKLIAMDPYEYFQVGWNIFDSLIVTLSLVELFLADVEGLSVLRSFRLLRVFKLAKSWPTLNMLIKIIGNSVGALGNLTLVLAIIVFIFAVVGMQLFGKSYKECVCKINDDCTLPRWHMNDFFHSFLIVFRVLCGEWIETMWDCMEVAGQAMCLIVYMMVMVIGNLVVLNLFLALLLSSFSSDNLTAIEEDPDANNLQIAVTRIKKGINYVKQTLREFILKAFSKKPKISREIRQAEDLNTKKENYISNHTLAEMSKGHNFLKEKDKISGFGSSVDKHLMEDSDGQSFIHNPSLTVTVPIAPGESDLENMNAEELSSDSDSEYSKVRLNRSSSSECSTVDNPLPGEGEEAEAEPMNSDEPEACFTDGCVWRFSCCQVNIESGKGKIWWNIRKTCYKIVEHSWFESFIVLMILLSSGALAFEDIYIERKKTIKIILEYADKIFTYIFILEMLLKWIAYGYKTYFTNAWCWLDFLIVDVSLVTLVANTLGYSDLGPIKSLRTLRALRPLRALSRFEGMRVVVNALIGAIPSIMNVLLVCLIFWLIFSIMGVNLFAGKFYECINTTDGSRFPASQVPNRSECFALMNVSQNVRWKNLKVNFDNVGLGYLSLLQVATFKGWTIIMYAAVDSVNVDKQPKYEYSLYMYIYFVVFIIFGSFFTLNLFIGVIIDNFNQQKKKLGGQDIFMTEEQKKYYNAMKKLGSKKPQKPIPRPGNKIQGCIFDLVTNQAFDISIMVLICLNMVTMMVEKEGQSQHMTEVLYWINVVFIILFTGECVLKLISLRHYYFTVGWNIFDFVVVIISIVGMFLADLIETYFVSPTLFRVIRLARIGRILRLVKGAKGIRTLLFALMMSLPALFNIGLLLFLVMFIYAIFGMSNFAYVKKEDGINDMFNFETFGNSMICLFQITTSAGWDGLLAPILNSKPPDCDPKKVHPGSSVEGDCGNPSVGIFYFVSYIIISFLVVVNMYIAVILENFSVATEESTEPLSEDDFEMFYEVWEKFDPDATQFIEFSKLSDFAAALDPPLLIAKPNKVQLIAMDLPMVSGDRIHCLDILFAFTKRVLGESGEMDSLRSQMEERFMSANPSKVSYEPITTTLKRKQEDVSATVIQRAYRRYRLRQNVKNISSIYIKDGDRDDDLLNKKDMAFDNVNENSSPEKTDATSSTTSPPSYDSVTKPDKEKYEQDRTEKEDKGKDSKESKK
row,Compound,IC50 [nM]
1,"CC(=O)Nc1nccc(C(=O)NC(C)c2cnc(OCC(F)(F)F)c(C)c2)n1 (single isomer, unassigned) [Example 234, 2-acetamido-N-(1-(5-methyl-6-(2,2,2-trifluoroethoxy)pyridin-3-yl)ethyl)pyrimidine-4-carboxamide]",< 1000
2,"CCC(=O)Nc1cc(C(=O)NCc2ccc(O[C@H](C)C(F)(F)F)nc2)ccn1 (single isomer, unassigned) [Example 316]",< 1000
3,"CCC(=O)Nc1cc(C(=O)NCc2ccc(O[C@H](C)C(F)(F)F)nc2)cc(C)n1 (single isomer, unassigned) [Example 318]",< 1000
4,"CC(C)C(=O)Nc1cc(C(=O)NCc2ccc(O[C@H](C)C(F)(F)F)nc2)ccn1 (single isomer, unassigned) [Example 319]",< 1000
5,"CC(=O)Nc1cc(C(=O)NCc2ccc(O[C@H](C)C(F)(F)F)nc2)cc(C)n1 (single isomer, unassigned) [Example 320]",< 1000
6,"COc1cc(C(C)NC(=O)c2cc(C)nc(NC(C)=O)c2)cnc1OCC(F)(F)F (single isomer, unassigned) [Example 330, 2-acetamido-N-(1-(5-methoxy-6-(2,2,2-trifluoroethoxy)pyridin-3-yl)ethyl)-6-methylisonicotinamide]",< 1000
7,"CCCC(=O)Nc1cc(C(=O)NC(C)c2cnc(OCC(F)(F)F)c(OC)c2)ccn1 (single isomer, unassigned) [Example 331, 2-butyramido-N-(1-(5-methoxy-6-(2,2,2-trifluoroethoxy)pyridin-3-yl)ethyl)isonicotinamide]",< 1000
8,"Cc1cc(C(C)NC(=O)c2ccnc(NC(=O)C(C)C)c2)cnc1OCC(F)(F)F (single isomer, unassigned) [Example 378, 2-isobutyramido-N-(1-(5-methyl-6-(2,2,2-trifluoroethoxy)pyridin-3-yl)ethyl)isonicotinamide]",< 1000
9,"CC(=O)Nc1cc(C(=O)NC(C)c2cnc(OCC(F)(F)F)c(C)c2)cc(C)n1 (single isomer, unassigned) [Example 379, 2-acetamido-6-methyl-N-(1-(5-methyl-6-(2,2,2-trifluoroethoxy)pyridin-3-yl)ethyl)isonicotinamide]",< 1000
10,"CC(=O)Nc1cc(C(=O)N(C)C(C)c2cnc(OCC(F)(F)F)c(C)c2)cc(C)n1 (single isomer, unassigned) [Example 391, 2-acetamido-N,6-dimethyl-N-(1-(5-methyl-6-(2,2,2-trifluoroethoxy)pyridin-3-yl)ethyl)isonicotinamide]",< 1000
11,"CC(=O)Nc1cc(C(=O)N(C)C(C)c2cnc(OCC(F)(F)F)c(C)c2)ccn1 (single isomer, unassigned) [Example 392, 2-acetamido-N-methyl-N-(1-(5-methyl-6-(2,2,2-trifluoroethoxy)pyridin-3-yl)ethyl)isonicotinamide]",< 1000
12,"COc1cc(C(C)NC(=O)c2ccnc(NC(=O)C3CC3)n2)cnc1OCC(F)(F)F (single isomer, unassigned) [Example 400, 2-(cyclopropanecarboxamido)-N-(1-(5-methoxy-6-(2,2,2-trifluoroethoxy)pyridin-3-yl)ethyl)pyrimidine-4-carboxamide]",< 1000
13,"CC(NC(=O)c1ccnc(NC(=O)C2CC2)n1)c1ccc(OCC(F)(F)F)cc1 (single isomer, unassigned) [Example 405, 2-(cyclopropanecarboxamido)-N-(1-(4-(2,2,2-trifluoroethoxy)phenyl)ethyl)pyrimidine-4-carboxamide]",< 1000
14,"CC(C)C(=O)Nc1cc(C(=O)NC(C)c2cccc(OC(F)(F)F)c2)ccn1 (single isomer, unassigned) [Example 418, 2-isobutyramido-N-(1-(3-(trifluoromethoxy)phenyl)ethyl)isonicotinamide]",< 1000
15,"CC(=O)Nc1cc(C(=O)NC(C)c2cccc(OC(F)(F)F)c2)cc(C)n1 (single isomer, unassigned) [Example 420, 2-acetamido-6-methyl-N-(1-(3-(trifluoromethoxy)phenyl)ethyl)isonicotinamide]",< 1000
16,"Cc1cc(C(=O)NC(C)c2cccc(OC(F)(F)F)c2)cc(NC(=O)C(C)(C)O)n1 (single isomer, unassigned) [Example 421, 2-(2-hydroxy-2-methylpropanamido)-6-methyl-N-(1-(3-(trifluoromethoxy)phenyl)ethyl)isonicotinamide]",< 1000

row,Compound,IC50 [nM]
1,"C=CC(=O)Nc1cc(C(=O)NC(C)c2ccc(OCC(F)(F)F)nc2)cc(C)n1 (single isomer, unassigned) [Example 482, 2-acrylamido-6-methyl-N-(1-(6-(2,2,2-trifluoroethoxy)pyridin-3-yl)ethyl)isonicotinamide]",< 1000
2,"Cc1cc(C(=O)NC(C)c2cnc(OCC(F)(F)F)c(F)c2)cc(NC(=O)C(C)C)n1 (single isomer, unassigned) [Example 486, N-(1-(5-fluoro-6-(2,2,2-trifluoroethoxy)pyridin-3-yl)ethyl)-2-isobutyramido-6-methylisonicotinamide]",< 1000
3,"COc1cc(C(C)NC(=O)c2cc(C)nc(NC(=O)C(C)C)c2)cnc1OCC(F)(F)F (single isomer, unassigned) [Example 487, 2-isobutyramido-N-(1-(5-methoxy-6-(2,2,2-trifluoroethoxy)pyridin-3-yl)ethyl)-6-methylisonicotinamide]",< 1000
4,"Cc1cc(C(=O)NC(C)c2cnc(OCC(F)(F)F)c(Cl)c2)cc(NC(=O)C(C)C)n1 (single isomer, unassigned) [Example 521, N-(1-(5-chloro-6-(2,2,2-trifluoroethoxy)pyridin-3-yl)ethyl)-2-isobutyramido-6-methylisonicotinamide]",< 1000
5,"CC(C)C(=O)Nc1cc(C(=O)NC(C)c2cnc(OCC(F)(F)F)c(Cl)c2)ccn1 (single isomer, unassigned) [Example 522, N-(1-(5-chloro-6-(2,2,2-trifluoroethoxy)pyridin-3-yl)ethyl)-2-isobutyramidoisonicotinamide]",< 1000
6,"CC(=O)Nc1cc(C(=O)N[C@H](C)c2cccc(C(F)(F)F)c2)cc(C)n1 (single isomer, unassigned) [Example 529]",< 1000
7,"CC(C)C(=O)Nc1cc(C(=O)N[C@H](C)c2cccc(C(F)(F)F)c2)ccn1 (single isomer, unassigned) [Example 530]",< 1000
8,"Cc1cc(C(=O)N[C@H](C)c2cccc(C(F)(F)F)c2)cc(NC(=O)C(C)C)n1 (single isomer, unassigned) [Example 531]",< 1000
9,"CC(=O)Nc1cc(C(=O)NC(C)c2cnc(OCC(F)F)c(C)c2)ccn1 (single isomer, unassigned) [Example 551, 2-acetamido-N-(1-(6-(2,2-difluoroethoxy)-5-methylpyridin-3-yl)ethyl)isonicotinamide]",< 1000
10,"CCC(=O)Nc1cc(C(=O)NC(C)c2cnc(OCC(F)F)c(C)c2)ccn1 (single isomer, unassigned) [Example 552, N-(1-(6-(2,2-difluoroethoxy)-5-methylpyridin-3-yl)ethyl)-2-propionamidoisonicotinamide]",< 1000
11,"Cc1cc(C(C)NC(=O)c2ccnc(NC(=O)C3CC3)c2)cnc1OCC(F)F (single isomer, unassigned) [Example 553, 2-(cyclopropanecarboxamido)-N-(1-(6-(2,2-difluoroethoxy)-5-methylpyridin-3-yl)ethyl)isonicotinamide]",< 1000
12,"CC(=O)Nc1cc(C(=O)NC(C)c2cnc(OCC(F)F)c(C)c2)cc(C)n1 (single isomer, unassigned) [Example 556, 2-acetamido-N-(1-(6-(2,2-difluoroethoxy)-5-methylpyridin-3-yl)ethyl)-6-methylisonicotinamide]",< 1000
13,"Cc1cc(C(=O)NC(C)c2cnc(OCC(F)F)c(C)c2)nc(NC(=O)C2CC2)n1 (single isomer, unassigned) [Example 559, 2-(cyclopropanecarboxamido)-N-(1-(6-(2,2-difluoroethoxy)-5-methylpyridin-3-yl)ethyl)6-methylpyrimidine-4-carboxamide]",< 1000
14,"CC(C)C(=O)Nc1cc(C(=O)NC(C)c2cccc(OCC(F)(F)F)c2)ccn1 (single isomer, unassigned) [Example 561, 2-isobutyramido-N-(1-(3-(2,2,2-trifluoroethoxy)phenyl)ethyl)isonicotinamide]",< 1000
15,"CC(C)C(=O)Nc1cc(C(=O)NC(C)c2ccc(OCC(F)(F)F)cc2)ccn1 (single isomer, unassigned) [Example 562, 2-isobutyramido-N-(1-(4-(2,2,2-trifluoroethoxy)phenyl)ethyl)isonicotinamide]",< 1000
